The results in this text go back to PubChem BioAssay AID330 (DTP/NCI, 2004).

In this experiment the test system is P388 leukemia ip, CD2F1 mice, survival T/C. Put plainly: NCI In Vivo Anticancer Drug Screen. Data for tumor model P388 Leukemia (intraperitoneal) in CD2F1 (CDF1) mice. The settings on record: endpoint: median survival time, higher = longer survival. In short, it runs like this:
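Mice carrying the transplanted tumor received test compound or vehicle. Survival was recorded in each group, and the value is the treated-group measurement divided by that of the vehicle-treated control group.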

Where [1] appears, read: dose: 50.0 mg/kg/injection, schedule: Q01DX005 (ip), vehicle: Klucel (hydroxypropylcellulose) (HPC).
[2] abbreviates: dose: 100.0 mg/kg/injection, schedule: Q01DX005 (ip), vehicle: Klucel (hydroxypropylcellulose) (HPC).
The mark [3] stands for this setting: dose: 200.0 mg/kg/injection, schedule: Q01DX005 (ip), vehicle: Klucel (hydroxypropylcellulose) (HPC).
[4] abbreviates: dose: 50.0 mg/kg/injection, schedule: Q01DX009 (ip), vehicle: Klucel (hydroxypropylcellulose) (HPC).
The mark [5] stands for this setting: dose: 100.0 mg/kg/injection, schedule: Q01DX009 (ip), vehicle: Klucel (hydroxypropylcellulose) (HPC).
Where [6] appears, read: dose: 200.0 mg/kg/injection, schedule: Q01DX009 (ip), vehicle: Klucel (hydroxypropylcellulose) (HPC).
The mark [7] stands for this setting: dose: 100.0 mg/kg/injection, schedule: Q04DX003 (ip), vehicle: saline with Tween-80.
Setting [8] is: dose: 200.0 mg/kg/injection, schedule: Q04DX003 (ip), vehicle: saline with Tween-80.
The mark [9] stands for this setting: dose: 400.0 mg/kg/injection, schedule: Q04DX003 (ip), vehicle: saline with Tween-80.
The mark [10] stands for this setting: dose: 50.0 mg/kg/injection, schedule: Q01DX009 (ip), vehicle: saline.
Setting [11] is: dose: 12.5 mg/kg/injection, schedule: Q01DX009 (ip), vehicle: saline.
Setting [12] is: dose: 25.0 mg/kg/injection, schedule: Q01DX009 (ip), vehicle: saline.
Setting [13] is: dose: 60.0 mg/kg/injection, schedule: Q01DX005 (ip), vehicle: saline with Tween-80.
The mark [14] stands for this setting: dose: 120.0 mg/kg/injection, schedule: Q01DX005 (ip), vehicle: saline with Tween-80.

Structures are written as SMILES. Values joined by “and” are separate entries in the source; they are usually repeats but may differ in a detail not shown here. Equal entries are not always repeated. Inconclusive results and toxic doses are left out. Peptide text beside a SMILES is read from it.

On to `C/C=C/c1ccc(OC(C)C(=O)c2ccc3c(c2)OCO3)c(OC)c1` (stereo unspecified), for which the T/C (dose: 10.0 mg/kg/injection, schedule: Q01DX005 (ip), vehicle: Klucel (hydroxypropylcellulose) (HPC)) was 108 % of control; the T/C (dose: 20.0 mg/kg/injection, schedule: Q01DX005 (ip), vehicle: Klucel (hydroxypropylcellulose) (HPC)) is 101 % of control; the T/C (dose: 40.0 mg/kg/injection, schedule: Q01DX005 (ip), vehicle: Klucel (hydroxypropylcellulose) (HPC)) was 101 % of control.
Take `CC1=NC2=CC=CC3=NC(C(Cl)(Cl)Cl)=NC(=N1)N23`: the T/C (dose: 60.0 mg/kg/injection, schedule: Q01DX005 (ip), vehicle: Klucel + Tween-80) was 102 % of control; the T/C (dose: 120.0 mg/kg/injection, schedule: Q01DX005 (ip), vehicle: Klucel + Tween-80) was 102 % of control; the T/C (dose: 240.0 mg/kg/injection, schedule: Q01DX005 (ip), vehicle: Klucel + Tween-80) was 102 % of control.
Take `CCOC(=O)c1ccnc2ccc(OCCN(CC)CC)cc12`: the T/C reads like this: (dose: 50.0 mg/kg/injection, schedule: Q01DX005 (ip), vehicle: saline) 96 % of control; (dose: 100.0 mg/kg/injection, schedule: Q01DX005 (ip), vehicle: saline) 100 % of control; (dose: 200.0 mg/kg/injection, schedule: Q01DX005 (ip), vehicle: saline) 101 % of control.
Turning to `CC(C)CC(NC(=O)C(NC(=O)C(N)C(C)O)C(C)C)C(=O)O` (stereo not drawn) (H-Thr-Val-Leu-OH; configuration not given here), the T/C is, setting by setting: under setting [1], 95 % of control; under setting [2], 101 % of control; under setting [3], 104 % of control.
On to `c1ccc(C2SC(c3ccccc3)SC(c3ccccc3)S2)cc1` (stereo unspecified), for which the T/C is 109 % of control under setting [4]; 107 % of control under setting [5]; 108 % of control under setting [6]; 106 % of control (dose: 400.0 mg/kg/injection, schedule: Q01DX009 (ip), vehicle: Klucel (hydroxypropylcellulose) (HPC)).
Regarding `COC(=O)C(C)NC(=O)Cc1ccccc1` (stereo unspecified), the T/C reads like this: under setting [7], 104 % of control; under setting [8], 100 % of control; under setting [9], 90 % of control.
As for `CCn1c2ccccc2c2cc(N)c(N=Nc3cc(OC)c(N=Nc4ccc([N+](=O)[O-])cc4)cc3OC)cc21`, the T/C under setting [4] was 104 % of control, the T/C under setting [5] is 105 % of control and the T/C under setting [6] was 112 % of control.
As to `Nc1nc(N)c2nc(CNc3ccc(C(=O)NC(CCC(=O)O)C(=O)O)cc3F)cnc2n1` (stereo unspecified), the T/C is 163 % of control (dose: 1.87 mg/kg/injection, schedule: Q01DX005 (ip), vehicle: saline with Tween-80) and 183 % of control (dose: 7.5 mg/kg/injection, schedule: Q01DX005 (ip), vehicle: saline with Tween-80).
Take `Brc1ccc[n+](CCc2ccccc2)c1`: the T/C is, setting by setting: (dose: 12.5 mg/kg/injection, schedule: Q01DX009 (ip), vehicle: saline with Tween-80) 111 % of control; (dose: 25.0 mg/kg/injection, schedule: Q01DX009 (ip), vehicle: saline with Tween-80) 98 % of control.
As for `CN1CC(O)c2cc(N=NC(N)=O)c(O)cc21` (stereo unspecified), the T/C under setting [1] was 96 % of control, the T/C under setting [2] was 91 % of control and the T/C under setting [3] is 108 % of control.
`O=C(NC(COC1OC(CO)C(O)C(O)C1O)C(O)c1ccccc1)c1ccccc1` (stereo unspecified): the T/C runs as follows: under setting [4], 107 % of control; under setting [10], 90 % of control; under setting [5], 108 % of control; (dose: 100.0 mg/kg/injection, schedule: Q01DX009 (ip), vehicle: saline) 102 % of control; under setting [6], 113 % of control; (dose: 200.0 mg/kg/injection, schedule: Q01DX009 (ip), vehicle: saline) 108 % of control.
As to `O=S(=O)([O-])[O-].OCCNCCNCC[OH2+].OCCNCCNCC[OH2+].[Ni+2]`, the T/C runs as follows: under setting [11], 102 % of control; under setting [12], 93 % of control.
As to `CCC1C2Cc3ccc(O)cc3C1(C)CCN2C` (stereo unspecified), the T/C is, setting by setting: (dose: 12.5 mg/kg/injection, schedule: Q01DX005 (ip), vehicle: Klucel (hydroxypropylcellulose) (HPC)) 100 % of control; (dose: 25.0 mg/kg/injection, schedule: Q01DX005 (ip), vehicle: Klucel (hydroxypropylcellulose) (HPC)) 99 % of control; under setting [1], 102 % of control and 107 % of control.
Consider `CN(c1ccccc1)C1CS(=O)(=O)OC2=C1CCCC2` (stereo unspecified), for which the T/C was 98 % of control (dose: 50.0 mg/kg/injection, schedule: Q01DX009 (ip), vehicle: saline with Tween-80); 102 % of control (dose: 100.0 mg/kg/injection, schedule: Q01DX009 (ip), vehicle: saline with Tween-80); 104 % of control (dose: 200.0 mg/kg/injection, schedule: Q01DX009 (ip), vehicle: saline with Tween-80).
In the case of `O=C1C2CCCN2C(=O)N1c1ccccc1` (stereo unspecified), the T/C was 105 % of control (dose: 60.0 mg/kg/injection, schedule: Q01DX005 (ip), vehicle: Klucel (hydroxypropylcellulose) (HPC)); 97 % of control (dose: 120.0 mg/kg/injection, schedule: Q01DX005 (ip), vehicle: Klucel (hydroxypropylcellulose) (HPC)); 96 % of control (dose: 240.0 mg/kg/injection, schedule: Q01DX005 (ip), vehicle: Klucel (hydroxypropylcellulose) (HPC)).
For `CC(C)=CCC/C(C)=C/CC/C(C)=C/CC/C(C)=C/CC/C(C)=C/CC/C(C)=C/CC/C(C)=C/CC/C(C)=C/CC/C(C)=C/CO`, the T/C by setting is: (dose: 6.25 mg/kg/injection, schedule: Q01DX009 (ip), vehicle: saline + alcohol) 98 % of control; (dose: 12.5 mg/kg/injection, schedule: Q01DX009 (ip), vehicle: saline + alcohol) 96 % of control; (dose: 25.0 mg/kg/injection, schedule: Q01DX009 (ip), vehicle: saline + alcohol) 99 % of control; (dose: 50.0 mg/kg/injection, schedule: Q01DX009 (ip), vehicle: saline + alcohol) 107 % of control; (dose: 100.0 mg/kg/injection, schedule: Q01DX009 (ip), vehicle: saline + alcohol) 96 % of control; (dose: 200.0 mg/kg/injection, schedule: Q01DX009 (ip), vehicle: saline + alcohol) 109 % of control.
For `CN(C)C(=O)C[n+]1ccccc1`, the T/C under setting [11] is 99 % of control, the T/C under setting [12] is 98 % of control and the T/C under setting [10] is 101 % of control.
On to `CCOc1n[nH]c(-c2ccc(Cl)cc2Cl)n1`, for which the T/C was 102 % of control (dose: 100.0 mg/kg/injection, schedule: Q01DX001 (ip), vehicle: Klucel (hydroxypropylcellulose) (HPC)); 100 % of control (dose: 200.0 mg/kg/injection, schedule: Q01DX001 (ip), vehicle: Klucel (hydroxypropylcellulose) (HPC)); 101 % of control (dose: 400.0 mg/kg/injection, schedule: Q01DX001 (ip), vehicle: Klucel (hydroxypropylcellulose) (HPC)).
Turning to `O=C(COc1ccc(Cl)cc1Cl)Nc1ccccc1F`, the T/C under setting [7] was 100 % of control, the T/C under setting [8] is 100 % of control and the T/C under setting [9] is 100 % of control.
As to `CC1(C)OCC(C(OS(C)(=O)=O)C2OC(C)(C)OC2COS(C)(=O)=O)O1` (stereo unspecified), the T/C under setting [4] is 91 % of control, the T/C under setting [5] is 97 % of control and the T/C under setting [6] was 99 % of control.
`CC(=Nc1ccc(N(C)C)cc1)c1ccccc1`: the T/C reads like this: under setting [13], 98 % of control; under setting [14], 98 % of control.
`CCOC(=O)c1sc2nc(C)[nH]c(=O)c2c1C`: where the note is “dose: 50.0 mg/kg/injection, schedule: Q01DX005 (ip), vehicle: saline with Tween-80”, the T/C was 99 % of control.
Consider `O=C1OCC/C1=C\NCCCN/C=C1\CCOC1=O`, for which the T/C under setting [13] is 107 % of control; the T/C under setting [14] was 100 % of control; the T/C (dose: 240.0 mg/kg/injection, schedule: Q01DX005 (ip), vehicle: saline with Tween-80) was 105 % of control.
Regarding `C1CC[N-]CC1.C1CC[N-]CC1.C1CC[N-]CC1.C1CC[N-]CC1.[Cl][Co][Cl]`, the T/C was 100 % of control (dose: 25.0 mg/kg/injection, schedule: Q04DX003 (ip), vehicle: saline with Tween-80); 91 % of control (dose: 33.0 mg/kg/injection, schedule: Q01DX009 (ip), vehicle: saline with Tween-80); 118 % of control under setting [7].
`CCCCCCCCCCCCN(O)C(=O)c1ccccc1`: the T/C runs as follows: under setting [4], 99 % of control and 115 % of control; under setting [5], 104 % of control; under setting [6], 108 % of control and 96 % of control.
